US10874636B2, “Application of substituted cinnamamide derivatives in preparation of anti-anxiety medication” (TASLY PHARMACEUTICAL GROUP CO., LTD., priority 2016, dated 2020)

What was measured:
mice = experiment: Elevated plus-maze test for mice; assay type: in vivo, ICR male mice; conditions: 10 mg/kg intragastric for 1 week; in words
Description: 247 ICR male mice aged 6-8 weeks with the weight of 18-22 g were taken and fed adaptively for 1 week. Then, these mice were evenly divided, at random, into 19 groups based on their weights. Intragastric administration was conducted once a day according to the drugs and dosages listed in Table 1, which lasted for 7 consecutive days. 20 minutes after administration on the 7th day, the elevated plus-maze test was conducted.
The elevated plus-maze (EPM) for mice were composed of two opposite open arms (50 cm×10 cm) and two opposite enclosed arms (50 cm×10 cm×40 cm), wherein upper portions of the enclosed arms were not capped, an open portion of 10 cm×10 cm was located in the middle of the maze, and the maze was 50 cm away from the ground. The test was conducted in a quite environment at a time period ranging from 13:00 to 18:00.
The open-arms entries (OE) and enclosed-arms entries, as well as the residence time in two arms, of the mice, within 5 minutes, were recorded respectively, and the percentage of the open-arms entries (OE %) and that of the open-arms time (OT %) for each group of mice with respect to the total entries into the two arms and the total residence time in the two arms therein were calculated respectively.
Analysis was conducted using SPSS 11.5 software, and data were represented by x±S, the significance of differences between groups was compared using the analysis of variance, differences were significant while P was less than 0.05.

rats = experiment: Drinking conflict experiment for rats (Vogel test); assay type: in vivo, SD male rats; conditions: for Effect on water licks of the rats during the punished session compared with the solvent control groups: 5 mg/kg intragastric for 10 days, in words; for Water licks of rats during punished session: 5 mg/kg intragastric once a day for 10 days, test half an hour after final administration, 3 minutes, 0.3 mA, x±S
Description: 230 SD male rats with the weight of 180-220 g were taken and fed adaptively for 1 week. Then, these rats were divided, at random, into 19 groups based on their weights, 12-13 rats in each group. Intragastric administration was conducted one a day according to the drugs and dosages listed in Table 2, which lasted for 10 consecutive days. Water deprivation 48 hours before the final administration, and non-punitive drinking training was conducted on the 9th day; on the 10th day, half an hour after the final intragastric administration of all the groups, the punitive experimental test was conducted.
On the first stage (non-punitive drinking training): after water deprivation for 24 hours, the rats were placed in operation boxes individually to explore thoroughly, until they found bottle mouths and began to lick water, water licks of the rats within 3 minutes under the conditions of no electric shock (the condition was set as follows: the strength of electric shock was 0 mA) were automatically recorded by counters, and rats whose water licks were less than 300 were eliminated. On the second stage (punitive experiment): the above rats which were not eliminated were placed in the operation boxes after continuing the water deprivation for 24 hours (48 hours in total). The rats could find the bottle mouths rapidly and begin to lick water, the instruments began to time automatically and imparted one electric shock (the ratio of licks to the number of electric shocks was 20:1) while the water licks reached to 20, wherein the strength of electric shocks was 0.3 mA, lasting for 2 seconds, but these rats may control the length of the time for which they were electrically shocked by keeping away from the bottle mouths. Water licks of the rats during the punished session (3 minutes) were recorded.
Observational indexes of the Vogel drinking conflict model: water licks of the rats during the punished session.

SMILES: O=C(/C=C/c1cc2c(c(C(F)(F)F)c1)OCO2)N1CCCCC1 [II-10, 5′-trifluoromethyl-3′,4′-methylenedioxy cinnamic acid piperidinylamide]
- Effect on open-arms entries of the mice compared with the solvent control groups (mice): increase the open-arms entries of the mice
- Effect on open-arms time of the mice compared with the solvent control groups (mice): prolong their open-arms time
- Effect on water licks of the rats during the punished session compared with the solvent control groups (rats): increase water licks of the rats during the punished session
- Water licks of rats during punished session (rats): 459.75 ± 59.23

SMILES: CC(C)CNC(=O)/C=C/C=C/CCc1cc2c(c(C(F)(F)F)c1)OCO2 [II-14, (2E, 4E)-N-isobutyl-7-(5′-trifluoromethyl-3′,4′-methylenedioxyphenyl)-2,4-heptadiene amide]
- Effect on open-arms entries of the mice compared with the solvent control groups (mice): increase the open-arms entries of the mice
- Effect on open-arms time of the mice compared with the solvent control groups (mice): prolong their open-arms time
- Effect on water licks of the rats during the punished session compared with the solvent control groups (rats): increase water licks of the rats during the punished session
- Water licks of rats during punished session (rats): 368.00 ± 47.38

SMILES: CN1CCN(C(=O)/C=C/C=C/CCc2cc3c(c(C(F)(F)F)c2)OCO3)CC1.Cl [II-15, (2E,4E)-N-(4-methylpiperazinyl)-7-(5′-trifluoromethyl-3′,4′-methylenedioxyphenyl)-2,4-heptadiene amide hydrochloride]
- Effect on open-arms entries of the mice compared with the solvent control groups (mice): increase the open-arms entries of the mice
- Effect on open-arms time of the mice compared with the solvent control groups (mice): prolong their open-arms time
- Effect on water licks of the rats during the punished session compared with the solvent control groups (rats): increase water licks of the rats during the punished session
- Water licks of rats during punished session (rats): 412.25 ± 42.90

SMILES: COc1c(O)cc(/C=C/C(=O)NCC(C)C)cc1C(F)(F)F [III-4, 3′-hydroxyl-4′-methoxy-5′-trifluoromethyl-cinnamic acid isobutylamide]
- Effect on open-arms entries of the mice compared with the solvent control groups (mice): increase the open-arms entries of the mice
- Effect on open-arms time of the mice compared with the solvent control groups (mice): prolong their open-arms time
- Effect on water licks of the rats during the punished session compared with the solvent control groups (rats): increase water licks of the rats during the punished session
- Water licks of rats during punished session (rats): 394.22 ± 50.29

SMILES: CC(C)CNC(=O)CCc1cc(O)c(O)c(C(F)(F)F)c1 [III-10, 3-(3′,4′-dihydroxyl-5′-trifluoromethylphenyl)-propionic acid isobutylamide]
- Effect on open-arms entries of the mice compared with the solvent control groups (mice): increase the open-arms entries of the mice
- Effect on open-arms time of the mice compared with the solvent control groups (mice): prolong their open-arms time
- Effect on water licks of the rats during the punished session compared with the solvent control groups (rats): increase water licks of the rats during the punished session
- Water licks of rats during punished session (rats): 369.00 ± 44.83

SMILES: O=C(/C=C/c1cc(O)c(O)c(C(F)(F)F)c1)N1CCCCC1 [III-9, 3′,4′-dihydroxyl-5′-trifluoromethyl-cinnamyl piperidine]
- Effect on open-arms entries of the mice compared with the solvent control groups (mice): increase the open-arms entries of the mice
- Effect on open-arms time of the mice compared with the solvent control groups (mice): prolong their open-arms time
- Effect on water licks of the rats during the punished session compared with the solvent control groups (rats): increase water licks of the rats during the punished session
- Water licks of rats during punished session (rats): 363.56 ± 39.70

SMILES: CC(C)CNC(=O)/C=C/c1cc(I)c2c(c1)OCO2 [II-3, 5′-iodine-3′,4′-methylenedioxy cinnamic acid isobutylamide]
- Effect on open-arms entries of the mice compared with the solvent control groups (mice): increase the open-arms entries of the mice
- Effect on open-arms time of the mice compared with the solvent control groups (mice): prolong their open-arms time
- Effect on water licks of the rats during the punished session compared with the solvent control groups (rats): increase water licks of the rats during the punished session
- Water licks of rats during punished session (rats): 483.75 ± 59.05
